Consider 2 compounds from patent US9321758B2, “Amorphous salt of a macrocyclic inhibitor of HCV” (Janssen Pharmaceuticals, Inc., priority 2009, dated 2016).

A short description of data set [1]: Clinical investigations, tolerability in patients. It counts as in vivo.
Another data set in a line: Water solubility. It counts as physicochemical.
Data set [2] in a line: Adsorption-Desorption (DVS), dynamic vapor sorption. It counts as physicochemical. Particulars: for water adsorbed: at high relative humidity. As to the method:
Amorphous TMC435 (19 mg) was transferred into a SMS (Surface Measurement Systems Ltd.) dynamic vapor sorption model DVS-1 and the weight change was recorded with respect to the atmospheric humidity at 25° C.

Data set [3] is described as follows: Long-term storage stability of the amorphous form by powder XRD. The note with it: stored during 1 year, 8 months and 23 days. It counts as physicochemical. How it is done:
This means that the amorphous Na salt of TMC435 allows stable storage during a normal shelf life period. X-ray powder diffraction (XRPD) analysis was carried out on a Philips X′PertPRO MPD diffractometer PW3050/60 with generator PW3040. The instrument was equipped with a Cu LFF X-ray tube PW3373/10. The compound was spread on a zero background sample holder.

Turning to `COc1ccc2c(O[C@@H]3C[C@H]4C(=O)N[C@]5(C(=O)NS(=O)(=O)C6CC6)C[C@H]5/C=C\CCCCN(C)C(=O)[C@@H]4C3)cc(-c3nc(C(C)C)cs3)nc2c1C` [TMC435, (1R,4R,6S,15R,17R)-cis-N-[17-[2-(4-isopropylthiazol-2-yl)-7-methoxy-8-methyl-quinolin-4-yloxy]-13-methyl-2,14-dioxo-3,13-diazatricyclo[13.3.0.0^4,6]octadec-7-ene-4-carbonyl] (cyclopropyl)sulfonamide], the tolerability in patients entry in data set [1] was “well-tolerated”. In the data set “Water solubility”, the water solubility result was “poorly water-soluble”.
On to `COc1ccc2c(O[C@@H]3C[C@H]4C(=O)N[C@]5(C(=O)[N-]S(=O)(=O)C6CC6)C[C@H]5/C=C\CCCCN(C)C(=O)[C@@H]4C3)cc(-c3nc(C(C)C)cs3)nc2c1C.[Na+]` [amorphous sodium salt of TMC435], for which, in data set [2] (DVS desorption cycle, 25° C.), the “moisture remaining on the product during the desorption cycle” value is reported as 1.61%. Moreover, the “weight loss during the initial drying step” value in data set [2] (DVS, drying 60 min under dry nitrogen, 25° C.) came out at 2.03%. For the same compound, the water adsorbed entry in data set [2] (25° C.) was “up to 13%”; in data set [2] (25° C., listed as sodium salt of compound I), “up to 13.1%”. For the same compound, the “stability when water is absorbed” value in data set [2] (brought into contact with humidity) was “remains stable”. The hygroscopicity entry in data set [2] (listed as Amorphous Sodium Salt Prepared According to Example 1) is “Hygroscopic”; in data set [2] (listed as sodium salt of compound I), “hygroscopic”. Moreover, the “solid form after DVS (IR and XRD)” value in data set [2] (product obtained after DVS) is recorded as “remained amorphous”. In addition, the “powder XRD pattern after storage compared with pattern shortly after preparation” value in data set [3] is given as “remained essentially unchanged”.
